Source: the supplement of paper PMC11962398

Key:
BI-2493 [1] = compound: T1, C[C@H]1CNCCN1c1nccc(-c2noc3c2CCC[C@@]32CCCc3sc(N)c(C#N)c32)n1 [BI-2493]; details: 5 days
Description: (§1)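 PRISM pooled barcoded cancer cell line viability screen (Broad Institute) with BI-2493 at 8 doses in threefold dilutions from 0.00457 to 10 µmol/L, 5-day treatment; curves fitted per cell line. IC50 is undefined (placeholder) for resistant lines. AUC is capped at 1, and sensitivity is reported as 1 − AUC.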

BI-2493 [2] = compound: T1, BI-2493; assay: 1 - AUC of viability dose-response curve (sensitivity) (fraction); higher = more sensitive; details: 5 days
Description: as §1

Test System | IC50 of cell viability (BI-2493 [1]) [µM] | 1 - AUC of viability dose-response curve (BI-2493 [2])
8MGBA_CENTRAL_NERVOUS_SYSTEM | 6.11 | 0.0867
22RV1_PROSTATE | 5.65 | 0.111
42MGBA_CENTRAL_NERVOUS_SYSTEM | > 10 | 0.073
93T449_SOFT_TISSUE | 9.31 | 0.0121
94T778_SOFT_TISSUE | 5.6 | 0.112
143B_BONE | 8.98 | 0.0198
253JBV_URINARY_TRACT | 6.75 | 0.0713
253J_URINARY_TRACT | 4.76 | 0.0834
639V_URINARY_TRACT | > 10 | 0.116
647V_URINARY_TRACT | 7.05 | 0.0938
697_HAEMATOPOIETIC_AND_LYMPHOID_TISSUE | 8.3 | 0.0309
769P_KIDNEY | 6.88 | 0.0662
786O_KIDNEY | 2.69 | 0.241
921_UVEA | 4.34 | 0.13
1618K_TESTIS | 2.47 | 0.206
1777NRPMET_TESTIS | 9.43 | 0.0116
5637_URINARY_TRACT | 5.2 | 0.225
8305C_THYROID | 9.71 | 0.00549
8505C_THYROID | 9.69 | 0.00728
9505BIK_PANCREAS | 1.57 | 0.321
2313287_STOMACH | 1.34 | 0.233
A3KAW_HAEMATOPOIETIC_AND_LYMPHOID_TISSUE | 3.54 | 0.191
A101D_SKIN | 8.09 | 0.0656
A172_CENTRAL_NERVOUS_SYSTEM | 4.33 | 0.178

Test System | IC50 of cell viability (BI-2493 [1]) [µM] | 1 - AUC of viability dose-response curve (BI-2493 [2])
A204_SOFT_TISSUE | 4.24 | 0.163
A253_SALIVARY_GLAND | 4.12 | 0.197
A375_SKIN | 9.23 | 0.016
A388_SKIN | > 10 | 0.0151
A427_LUNG | 0.735 | 0.349
A498_KIDNEY | 5.88 | 0.113
A549_LUNG | 2.17 | 0.207
A673_BONE | 9.04 | 0.0226
A704_KIDNEY | 9.08 | 0.0519
A1207_CENTRAL_NERVOUS_SYSTEM | 7.21 | 0.179
A2058_SKIN | 5.91 | 0.0892
A2780_OVARY | 5.15 | 0.103
ABC1_LUNG | 7.12 | 0.0666
ACCMESO1_PLEURA | 9.66 | 0.00668
ACHN_KIDNEY | 6.46 | 0.133
AGS_STOMACH | 0.844 | 0.313
ALLSIL_HAEMATOPOIETIC_AND_LYMPHOID_TISSUE | 9.13 | 0.033
AM38_CENTRAL_NERVOUS_SYSTEM | 4.3 | 0.101
AMO1_HAEMATOPOIETIC_AND_LYMPHOID_TISSUE | 5.6 | 0.088
AN3CA_ENDOMETRIUM | 4.74 | 0.142
ANGMCSS_CENTRAL_NERVOUS_SYSTEM | > 10 | 0.0225
ASPC1_PANCREAS | 2.11 | 0.32
AU565_BREAST | 6.01 | 0.0935
BC3C_URINARY_TRACT | 5.1 | 0.193

Test System | IC50 of cell viability (BI-2493 [1]) [µM] | 1 - AUC of viability dose-response curve (BI-2493 [2])
BCPAP_THYROID | 6.5 | 0.0703
BDCM_HAEMATOPOIETIC_AND_LYMPHOID_TISSUE | > 10 | 0.0903
BECKER_CENTRAL_NERVOUS_SYSTEM | 9.55 | 0.00973
BEN_LUNG | 1.62 | 0.264
BFTC905_URINARY_TRACT | 6.41 | 0.114
BFTC909_KIDNEY | 6.33 | 0.0855
BHT101_THYROID | 7.97 | 0.0404
BHY_UPPER_AERODIGESTIVE_TRACT | 5.93 | 0.0642
BICR6_UPPER_AERODIGESTIVE_TRACT | 4 | 0.178
BICR16_UPPER_AERODIGESTIVE_TRACT | 5.24 | 0.263
BICR18_UPPER_AERODIGESTIVE_TRACT | 4.16 | 0.147
BICR22_UPPER_AERODIGESTIVE_TRACT | 4.66 | 0.137
BICR31_UPPER_AERODIGESTIVE_TRACT | 6.97 | 0.0764
BICR56_UPPER_AERODIGESTIVE_TRACT | 4.72 | 0.152
BICR78_UPPER_AERODIGESTIVE_TRACT | 5.51 | 0.173
BL2_HAEMATOPOIETIC_AND_LYMPHOID_TISSUE | 4.45 | 0.183
BLUE1_HAEMATOPOIETIC_AND_LYMPHOID_TISSUE | 3.33 | 0.129
BOKU_CERVIX | > 10 | 0.119
BONNA12_HAEMATOPOIETIC_AND_LYMPHOID_TISSUE | > 10 | 0.117
BT12_SOFT_TISSUE | 5.51 | 0.17
BT16_SOFT_TISSUE | > 10 | 0.189
BT474_BREAST | 9.18 | 0.0542
BT549_BREAST | 8.89 | 0.0828
BV173_HAEMATOPOIETIC_AND_LYMPHOID_TISSUE | 1.67 | 0.344

Test System | IC50 of cell viability (BI-2493 [1]) [µM] | 1 - AUC of viability dose-response curve (BI-2493 [2])
BXPC3_PANCREAS | > 10 | 0.0507
C4I_CERVIX | 3.49 | 0.154
C32_SKIN | 9.25 | 0.0594
C33A_CERVIX | 3.53 | 0.131
C75_LARGE_INTESTINE | 9.28 | 0.22
C80_LARGE_INTESTINE | 0.477 | 0.3
C8166_HAEMATOPOIETIC_AND_LYMPHOID_TISSUE | 9.65 | 0.00732
CADOES1_BONE | 9.64 | 0.00999
CAKI1_KIDNEY | 9.29 | 0.0185
CAL12T_LUNG | 4.93 | 0.201
CAL27_UPPER_AERODIGESTIVE_TRACT | 3.79 | 0.241
CAL29_URINARY_TRACT | 2.5 | 0.264
CAL33_UPPER_AERODIGESTIVE_TRACT | 6.54 | 0.142
CAL51_BREAST | 9.13 | 0.0624
CAL54_KIDNEY | > 10 | 0.00233
CAL62_THYROID | > 10 | 0.0045
CAL72_BONE | > 10 | 0.176
CAL78_BONE | 7.37 | 0.0497
CAL120_BREAST | > 10 | 0.0763
CAL148_BREAST | > 10 | < 0
CALU1_LUNG | 5.25 | 0.0917
CALU6_LUNG | 9.77 | 0.00583
CAMA1_BREAST | > 10 | 0.00667
